Data taken from US8734816B2, “Porous nanoparticle supported lipid bilayer nanostructures” (STC.UNM, priority 2009, dated 2014).
Structures can show the parent of a compound that is named as a salt.

How the values were obtained:
[1] = Lipid association with mesoporous silica nanoparticles; format: physicochemical; settings: <20 μg liposome per 0.5 mg silica particles; 5% DHPE-Texas Red label; neutral pH
Experimental: To measure the amount of lipid associated with silica nanoparticles as a function of lipid concentration, about 20 μL aliquots of 25 mg/mL silica nanoparticles were mixed with 1, 2, 3, 5, 7, 10, 20, and 30 μL of 2.5 mg/mL lipids. The lipids tested included DOPC, DOPS and DOTAP, all containing 5% DHPE-Texas Red labels. The mixtures were centrifuged. The Texas Red absorbance from the supernatant and the silica nanoparticles was measured.

[2] = Colloidal stability of the silica/lipid mixture as a function of lipid concentration (dynamic light scattering); format: physicochemical; settings: at low liposome contents
Experimental: Depending on the relative amount of liposome added, silica particles first aggregated at low lipid concentrations to form large aggregates, which disappeared upon adding more liposomes. […] Similar observations were also reported for polystyrene beads, where aggregation was attributed to liposome mediated nanoparticle assembly at low lipid concentrations. Therefore, to form supported bilayers with good colloidal stability, excess amount of liposomes (50 μg liposome per 0.5 mg silica) were used.

[3] = test system: Chinese Hamster Ovary (CHO) cells; assay: Cellular uptake of supported bilayers (protocells); format: cell-based; settings: green fluorescence of cells
Experimental: Cell Culture: Chinese Hamster Ovary cells (CHO) were obtained from the American Type Culture Collection (ATCC) and maintained in K-12 media supplemented with about 10% fetal bovine serum, about 1% penicillin and about 1% streptomycin. The media were changed every two to three days and the cells were passaged by trypsinization. To prepare samples for confocal imaging, round glass cover slips were used for cell growth. The glass slides were treated with 0.1M KOH for at least 24 hours before use. Cells in the media were dropped onto the cover slips and the slips were kept in Petri dishes. The cells were kept in an incubator at 37° C. with 5% CO2 and 95% humidity. Cellular uptake of supported bilayers (protocells): about 1 mL of serum free media was warmed to about 37° C. and about 10 μL of the above prepared supported bilayers were added and vortexed. To study the uptake of supported bilayers by CHO cells, the cells were grown to ˜70% confluence. The old media was removed and fresh media with supported bilayers were introduced. The cells were incubated for about four hours at about 37° C. and free particles were washed away with PBS and media before imaging. Confocal fluorescence microscopy: A Bio-Rad Radiance 2100 confocal fluorescence microscope system was used for imaging cells. […]

[4] = Quantification of calcein encapsulated / concentration estimation inside mesoporous silica nanoparticles; format: physicochemical; settings: supported bilayers of different lipids
Experimental: To prepare supported bilayers that encapsulate calcein, the silica nanoparticles were first mixed with 250 μM calcein and liposomes were subsequently added. The remaining procedures were the same as described above.
Mesoporous silica nanoparticles (about 50 mg, no FITC modification) were dispersed in 2 mL water. About 5 μL of 100 mM calcein was added so the final dye concentration was ˜250 μM. The solution was divided into 50 μL aliquots and equal volumes of liposomes of different compositions were mixed to form supported bilayers. The supported bilayers were centrifuged and washed three times with 200 μL of 0.25×PBS to remove free calcein. Finally, about 50 μL of 1% SDS buffer solution was added to the precipitated supported bilayers to disrupt the lipid bilayer and release the calcein dye. About 150 μL of 0.25×PBS was then added to make the final volume to be about 200 μL and the tubes were centrifuged at 15000 rpm for about 2 minutes to precipitate silica nanoparticles. About 10 μL from the supernatant was transferred into a quartz microcuvette with a path length of about 1 cm to measure the absorbance at a wavelength of about 500 nm, which is proportional to the amount of calcein dye retained in the mesoporous silica nanoparticle.
Because the volume of this final solution was about 200 μL, the retained calcein in silica was then about 9 nmol. […]

Structure (SMILES)	association of liposomes with silica nanoparticles [1]	average size of particles [2]	uptake of calcein into CHO cells [3]	calcein encapsulation efficiency (comparison of lipids) [4]
CCCCCCCC/C=C\CCCCCCCC(=O)OC[C@H](COP(=O)([O-])OCC[N+](C)(C)C)OC(=O)CCCCCCC/C=C\CCCCCCCC [DOPC, 1,2-Dioleoyl-sn-Glycero-3-Phosphocholine]	almost quantitatively associated	significant increase		
O=C(O)CN(CC(=O)O)Cc1cc2c(cc1O)Oc1cc(O)c(CN(CC(=O)O)CC(=O)O)cc1C21OC(=O)c2ccccc21 [calcein]			can not take	
CCCCCCCC/C=C\CCCCCCCC(=O)OC[C@H](COP(=O)(O)OC[C@H](N)C(=O)O)OC(=O)CCCCCCC/C=C\CCCCCCCC [DOPS, 1,2-Dioleoyl-sn-Glycero-3-[Phospho-L-Serine] (Sodium Salt)]	did not associate			
CCCCCCCC/C=C\CCCCCCCC(=O)OCC(C[N+](C)(C)C)OC(=O)CCCCCCC/C=C\CCCCCCCC.[Cl-] (stereo not shown) [DOTAP, 1,2-Dioleoyl-3-Trimethylammonium-Propane (Chloride Salt)]	almost quantitatively associated	significant increase		highest
